Among the data in US8618289B2 (Ambit Biosciences Corporation, priority 2008, dated 2013) are IC50, EC50 and Kd values, retold here.

Structures are written as SMILES. Some results are limits rather than exact numbers.

The test system of assay [1] is MEK1 phosphorylation in the A375 human melanoma cell line. The assay can be described thus: cells. Particulars: A-375, read-out: pMEK IC50.
The subject of the next assay is A375 cells. The experiment in a line: cells. To be noted: Homo sapiens, A-375, read-out: A375 Viability EC50.
Assay [2] has as its target RAF kinases (Homo sapiens, UniProt P04049). The assay can be described thus: biochemical.
In assay [3] the target is RAF kinases (Homo sapiens, UniProt P15056, V600E). The assay can be described thus: biochemical.
RAF kinases (Homo sapiens, UniProt P15056, V600E), sequence (P15056 whole entry V600E): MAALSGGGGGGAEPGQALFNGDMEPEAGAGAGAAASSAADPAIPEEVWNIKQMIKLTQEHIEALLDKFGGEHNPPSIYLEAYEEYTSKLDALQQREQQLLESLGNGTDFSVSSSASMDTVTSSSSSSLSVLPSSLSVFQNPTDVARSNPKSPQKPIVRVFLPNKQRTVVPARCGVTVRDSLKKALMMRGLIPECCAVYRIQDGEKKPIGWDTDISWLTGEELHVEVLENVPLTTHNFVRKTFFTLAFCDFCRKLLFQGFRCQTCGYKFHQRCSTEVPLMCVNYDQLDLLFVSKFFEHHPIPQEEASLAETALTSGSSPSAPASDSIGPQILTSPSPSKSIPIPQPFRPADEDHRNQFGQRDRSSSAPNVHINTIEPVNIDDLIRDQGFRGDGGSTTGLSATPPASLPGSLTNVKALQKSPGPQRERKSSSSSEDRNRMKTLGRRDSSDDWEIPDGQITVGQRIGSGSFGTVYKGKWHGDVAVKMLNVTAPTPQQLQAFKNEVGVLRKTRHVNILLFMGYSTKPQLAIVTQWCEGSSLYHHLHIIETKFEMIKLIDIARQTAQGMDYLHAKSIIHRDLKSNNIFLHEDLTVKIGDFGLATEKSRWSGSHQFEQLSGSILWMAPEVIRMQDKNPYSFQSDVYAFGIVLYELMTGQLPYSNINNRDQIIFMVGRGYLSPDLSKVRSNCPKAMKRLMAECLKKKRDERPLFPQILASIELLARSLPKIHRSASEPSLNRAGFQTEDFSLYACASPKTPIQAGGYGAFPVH
Assay [4] concerns the target RAF kinases (Homo sapiens, UniProt P15056). The assay can be described thus: biochemical.

RAF kinases (Homo sapiens, UniProt P04049), sequence (P04049 whole entry): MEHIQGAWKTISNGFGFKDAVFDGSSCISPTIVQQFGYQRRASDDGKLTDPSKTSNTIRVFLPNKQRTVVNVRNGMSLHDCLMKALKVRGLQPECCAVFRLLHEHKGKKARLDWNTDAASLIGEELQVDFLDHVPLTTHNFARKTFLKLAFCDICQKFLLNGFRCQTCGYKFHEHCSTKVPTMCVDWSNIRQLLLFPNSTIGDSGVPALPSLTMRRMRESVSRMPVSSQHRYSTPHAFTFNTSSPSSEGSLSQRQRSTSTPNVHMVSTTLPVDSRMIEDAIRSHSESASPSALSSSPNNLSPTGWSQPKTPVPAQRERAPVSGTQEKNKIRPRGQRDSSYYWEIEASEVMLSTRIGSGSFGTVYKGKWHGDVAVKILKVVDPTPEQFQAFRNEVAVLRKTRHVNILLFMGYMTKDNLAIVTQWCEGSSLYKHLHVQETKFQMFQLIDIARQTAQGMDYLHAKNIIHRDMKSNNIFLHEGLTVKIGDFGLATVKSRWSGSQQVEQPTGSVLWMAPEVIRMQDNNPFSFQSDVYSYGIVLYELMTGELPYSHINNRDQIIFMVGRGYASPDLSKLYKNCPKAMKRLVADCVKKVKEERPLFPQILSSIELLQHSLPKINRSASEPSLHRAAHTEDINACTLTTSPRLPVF
RAF kinases (Homo sapiens, UniProt P15056), sequence (P15056 whole entry): as the sequence (P15056 whole entry V600E) above, with E600V counted along it

Regarding `COc1ccc2ncnc(Sc3cccc(NC(=O)Nc4cc(C(C)(C)C)on4)c3)c2c1` [Ex 49, 1-(5-tert-butylisoxazol-3-yl)-3-(3-(6-methoxyquinazolin-4-ylthio)phenyl)urea], the IC50 in assay [1] was in the range of 500 to 1000 nM. In the assay on A375 cells, the EC50 was more than 1000 nM. Besides, the figures for the Kd at RAF kinases [2] and at RAF kinases [3] were 500 to 1000 nM and 250 to 500 nM, respectively.
As for `COc1cc2c(Sc3cccc(NC(=O)Nc4cc(C(C)(C)C)on4)c3)ncnc2cc1OCCN1CCC(CO)CC1` [Ex 86, 1-(5-tert-butylisoxazol-3-yl)-3-(3-(7-(2-(4-(hydroxymethyl)piperidin-1-yl)ethoxy)-6-methoxyquinazolin-4-ylthio)phenyl)urea], the IC50 in assay [1] is less than 250 nM. Besides, the EC50 in the assay with A375 cells was more than 1000 nM. The Kd at RAF kinases [2] is 500 to 1000 nM; on RAF kinases [3] it was 250 to 500 nM.
Consider `COc1cc2ncnc(Oc3cccc(NC(=O)Nc4cc(-c5ccccc5)on4)c3)c2cc1OC` [Ex 113, 1-(3-(6,7-dimethoxyquinazolin-4-yloxy)phenyl)-3-(5-phenylisoxazol-3-yl)urea], for which, in assay [1], the half-inhibitory concentration (IC50) was 500 to 1000 nM. Moreover, the EC50 with A375 cells was more than 1000 nM. Besides, the results for the Kd on RAF kinases [4] and at RAF kinases [3] were 500 to 1000 nM and 250 to 500 nM, respectively.
Turning to `COc1cc2ncnc(Oc3cccc(NC(=O)Nc4cc(C5(C(F)(F)F)CCC5)no4)c3)c2cc1OC` [Ex 155, 1-(3-(6,7-dimethoxyquinazolin-4-yloxy)phenyl)-3-(3-(1-(trifluoromethyl)cyclobutyl)isoxazol-5-yl)urea], in assay [1], the IC50 lay within 250 to 500 nM. In addition, the EC50 in the assay on A375 cells was more than 1000 nM. Moreover, the Kd on RAF kinases [3] lay in the range of 250 to 500 nM.
On to `COc1cc2ncnc(Sc3cccc(NC(=O)Nc4cc(C5(C(F)(F)F)CCC5)no4)c3)c2cc1OC` [Ex 156, 1-(3-(6,7-dimethoxyquinazolin-4-ylthio)phenyl)-3-(3-(1-(trifluoromethyl)cyclobutyl)isoxazol-5-yl)urea], for which the IC50 in assay [1] lay in the range of 500 to 1000 nM. The EC50 with A375 cells is more than 1000 nM. This compound also displayed a Kd at RAF kinases [3] of 500 to 1000 nM.
With `COc1cc2ncnc(Oc3cccc(NC(=O)Nc4cc(C(F)(F)F)nn4-c4ccccc4)c3)c2cc1OC` [Ex 161, 1-[3-(6,7-dimethoxyquinazolin-4-yloxy)phenyl]-3-[1-phenyl-3-(trifluoromethyl)-1H-pyrazol-5-yl]urea], the half-inhibitory concentration (IC50) in assay [1] is less than 250 nM. Further, the EC50 with A375 cells lay within 250 to 500 nM. Besides, the Kd on RAF kinases [3] is 500 to 1000 nM.
As to `CCOC(=O)Cn1nc(C(C)(C)C)cc1NC(=O)Nc1cccc(Oc2ncnc3cc(OC)c(OC)cc23)c1` [Ex 166, ethyl 2-(3-tert-butyl-5-{3-[3-(6,7-dimethoxyquinazolin-4-yloxy)phenyl]ureido}-1H-pyrazol-1-yl)acetate], the IC50 in assay [1] is 500 to 1000 nM. In addition, the EC50 with A375 cells was more than 1000 nM. Moreover, the Kd at RAF kinases [3] was 250 to 500 nM.
In the same order, the values of `CCOC(C)(C)c1cc(NC(=O)Nc2cccc(Oc3ncnc4cc(OC)c(OC)cc34)c2)n(-c2ccccc2)n1` [Ex 168, 1-[3-(6,7-dimethoxyquinazolin-4-yloxy)phenyl]-3-[3-(2-ethoxypropan-2-yl)-1-phenyl-1H-pyrazol-5-yl]urea] are less than 250 nM, more than 1000 nM and 500 to 1000 nM.
For the compound `COc1cc2ncnc(Oc3cccc(NC(=O)Nc4cc(C(F)(F)F)nn4-c4ccc(F)cc4)c3)c2cc1OC` [Ex 171, 1-[3-(6,7-dimethoxyquinazolin-4-yloxy)phenyl]-3-[1-(4-fluorophenyl)-3-(trifluoromethyl)-1H-pyrazol-5-yl]urea], the IC50 in assay [1] fell in the range of 250 to 500 nM. The EC50 in the assay on A375 cells lay in the range of 250 to 500 nM. On RAF kinases [3], this compound came in with a Kd of 500 to 1000 nM.
Turning to `COc1cc2ncnc(Oc3cccc(NC(=O)Nc4cc(C(F)(F)F)nn4-c4ccc(C)cc4)c3)c2cc1OC` [Ex 172, 1-[3-(6,7-dimethoxyquinazolin-4-yloxy)phenyl]-3-[1-p-tolyl-3-(trifluoromethyl)-1H-pyrazol-5-yl]urea], the IC50 in assay [1] was less than 250 nM. In addition, in the assay on A375 cells, the EC50 is less than 250 nM. At RAF kinases [3], this compound showed a Kd of 500 to 1000 nM.
Consider `COc1cc2ncnc(Sc3cccc(NC(=O)Nc4ccc(Cl)c(C(F)(F)F)c4)c3)c2cc1OC` [Ex 186, 1-(4-chloro-3-(trifluoromethyl)phenyl)-3-(3-(6,7-dimethoxyquinazolin-4-ylthio)phenyl)urea], for which the half-inhibitory concentration (IC50) in assay [1] was 250 to 500 nM. The EC50 in the assay on A375 cells lay in the range of 500 to 1000 nM. This compound also had a Kd on RAF kinases [3] of 250 to 500 nM.
`COc1cc2ncnc(Sc3cccc(NC(=O)Nc4ccc(C(F)(F)F)c(OC)c4)c3)c2cc1OC` [Ex 190, 1-(3-(6,7-dimethoxyquinazolin-4-ylthio)phenyl)-3-(3-methoxy-4-(trifluoromethyl)phenyl)urea]: the IC50 in assay [1] is more than 1000 nM. Moreover, the half-maximal effective concentration (EC50) in the assay on A375 cells was more than 1000 nM. On RAF kinases [3], this compound yielded a Kd of 500 to 1000 nM.
Regarding `COc1cc2ncnc(Sc3cccc(NC(=O)Nc4cc(C(F)(F)F)nn4-c4ccccc4)c3)c2cc1OC` [Ex 192, 1-[3-(6,7-dimethoxyquinazolin-4-ylthio)phenyl]-3-[1-phenyl-3-(trifluoromethyl)-1H-pyrazol-5-yl]urea], the IC50 in assay [1] is less than 250 nM. Also, the EC50 in the assay with A375 cells is 250 to 500 nM. Besides, at RAF kinases [3], the Kd was in the range of 500 to 1000 nM.
Regarding `CCOC(=O)Cn1nc(C(C)(C)C)cc1NC(=O)Nc1cccc(Sc2ncnc3cc(OC)c(OC)cc23)c1` [Ex 195, ethyl 2-(3-tert-butyl-5-{3-[3-(6,7-dimethoxyquinazolin-4-ylthio)phenyl]ureido}-1H-pyrazol-1-yl)acetate], the IC50 in assay [1] was 250 to 500 nM. Besides, in the assay with A375 cells, the EC50 was more than 1000 nM. The same compound came in with a Kd at RAF kinases [3] of 250 to 500 nM.
Regarding `COc1cc2ncnc(Sc3cccc(NC(=O)Nc4cc(C(F)(F)F)nn4-c4ccc(F)cc4)c3)c2cc1OC` [Ex 198, 1-[3-(6,7-dimethoxyquinazolin-4-ylthio)phenyl]-3-[1-(4-fluorophenyl)-3-(trifluoromethyl)-1H-pyrazol-5-yl]urea], the IC50 in assay [1] was 250 to 500 nM. The EC50 with A375 cells was in the range of 500 to 1000 nM. For the same compound, the Kd on RAF kinases [3] is 500 to 1000 nM.
For the compound `COCCOc1cc(NC(=O)Nc2cccc(Sc3ncnc4cc(OC)c(OC)cc34)c2)cc(C(F)(F)F)c1` [Ex 200, 1-(3-(6,7-dimethoxyquinazolin-4-ylthio)phenyl)-3-(3-(2-methoxyethoxy)-5-(trifluoromethyl)phenyl)urea], the IC50 in assay [1] was more than 1000 nM. Moreover, the EC50 with A375 cells is more than 1000 nM. Besides, the dissociation constant Kd on RAF kinases [4] and on RAF kinases [3] was 500 to 1000 nM in each case.
Turning to `COCCOc1cc2ncnc(Oc3cccc(NC(=O)Nc4cc(C(=O)N5CCOCC5)cc(C(F)(F)F)c4)c3)c2cc1OC` [Ex 205, 1-(3-(6-methoxy-7-(2-methoxyethoxy)quinazolin-4-yloxy)phenyl)-3-(3-(morpholine-4-carbonyl)-5-(trifluoromethyl)phenyl)urea], in assay [1], the IC50 was more than 1000 nM. Besides, in the assay with A375 cells, the EC50 is more than 1000 nM. The Kd on RAF kinases [3] is 250 to 500 nM.
Turning to `CCOC(C)(C)c1cc(NC(=O)Nc2cccc(Oc3ncnc4cc(OCCOC)c(OC)cc34)c2)n(-c2ccccc2)n1` [Ex 212, 1-[3-(2-ethoxypropan-2-yl)-1-phenyl-1H-pyrazol-5-yl]-3-{3-[6-methoxy-7-(2-methoxyethoxy)quinazolin-4-yloxy]phenyl}urea], the IC50 in assay [1] was 500 to 1000 nM. In addition, the EC50 in the assay on A375 cells is more than 1000 nM. Besides, the Kd at RAF kinases [3] lay in the range of 250 to 500 nM.
Regarding `CCOC(C)(C)c1cc(NC(=O)Nc2cccc(Sc3ncnc4cc(OCCOC)c(OC)cc34)c2)n(-c2ccccc2)n1` [Ex 241, 1-[3-(2-ethoxypropan-2-yl)-1-phenyl-1H-pyrazol-5-yl]-3-{3-[6-methoxy-7-(2-methoxyethoxy)quinazolin-4-ylthio]phenyl}urea], the half-inhibitory concentration (IC50) in assay [1] was in the range of 500 to 1000 nM. Besides, in the assay on A375 cells, the EC50 was more than 1000 nM. In addition, at RAF kinases [3], the Kd lay within 250 to 500 nM.
